Data as given in the supplement of paper PMC11061612.

Legend:
[1] = tested on: COR-L95 (Small Cell Lung Carcinoma); experiment: Bliss excess, mean over the matrix (fraction); higher = more synergy
Procedure, shortened: (§1)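 After 24 hours at 37°C and 5% CO2 in 1536-well plates, cells in DMEM/F12 or RPMI plus 10% FBS received two-drug dose matrices for 72 hours. Viability came from CellTiter-Glo 2.0 luminescence and was scaled as inhibition, anchored at 0 by vehicle wells and at 1 by blank wells. Combination Emax is taken as the second-highest inhibition in the matrix, and Bliss excess as the observed combination effect less EA + EB − EA·EB, with EA and EB the single-agent effects.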

[2] = tested on: DB (B-Cell Non-Hodgkin's Lymphoma); experiment: as above
Procedure, shortened: as §1

ES7 (Ewing's Sarcoma) [3] = experiment: as above
Procedure, shortened: as §1

J82 (Bladder Carcinoma) = experiment: as above
Procedure, shortened: as §1

[4] = tested on: KARPAS-1106P (B-Cell Non-Hodgkin's Lymphoma); experiment: as above
Procedure, shortened: as §1

[5] = tested on: NCI-H1694 (Small Cell Lung Carcinoma); experiment: as above
Procedure, shortened: as §1

NCI-H2369 (Mesothelioma) = experiment: as above
Procedure, shortened: as §1

[6] = tested on: OCI-AML2 (Acute Myeloid Leukemia); experiment: as above
Procedure, shortened: as §1

[7] = tested on: SW1783 (Low Grade Glioma); experiment: as above
Procedure, shortened: as §1

[8] = tested on: SW1990 (Pancreatic Carcinoma); experiment: as above
Procedure, shortened: as §1

[9] = tested on: TGBC24TKB (Biliary Tract Carcinoma); experiment: as above
Procedure, shortened: as §1

[10] = tested on: EM-2 (Chronic Myelogenous Leukemia); experiment: combination Emax (second highest fraction inhibited in the dose matrix, 72 h); higher = more inhibition; extreme values may be limits of the assay
Procedure, shortened: as §1

ES7 (Ewing's Sarcoma) [11] = experiment: as above
Procedure, shortened: as §1

[12] = tested on: KARPAS-1106P (B-Cell Non-Hodgkin's Lymphoma); experiment: as above
Procedure, shortened: as §1

[13] = tested on: KARPAS-620 (Plasma Cell Myeloma); experiment: as above
Procedure, shortened: as §1

[14] = tested on: NCI-H1694 (Small Cell Lung Carcinoma); experiment: as above
Procedure, shortened: as §1

RH-1 (Ewing's Sarcoma) = experiment: as above
Procedure, shortened: as §1

[15] = tested on: SUIT-2 (Pancreatic Carcinoma); experiment: as above
Procedure, shortened: as §1

[16] = tested on: TE-5 (Esophageal Squamous Cell Carcinoma); experiment: as above
Procedure, shortened: as §1

[17] = tested on: U-266 (Plasma Cell Myeloma); experiment: as above
Procedure, shortened: as §1
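For Bliss excess, mean over the matrix in this document: after 72 h of two-drug dosing.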

Structure (SMILES) | Bliss excess [1] | Bliss excess [2] | Bliss excess (ES7 (Ewing's Sarcoma) [3]) | Bliss excess (J82 (Bladder Carcinoma)) | Bliss excess [4] | Bliss excess [5] | Bliss excess (NCI-H2369 (Mesothelioma)) | Bliss excess [6] | Bliss excess [7] | Bliss excess [8] | Bliss excess [9] | combination Emax [10] | combination Emax (ES7 (Ewing's Sarcoma) [11]) | combination Emax [12] | combination Emax [13] | combination Emax [14] | combination Emax (RH-1 (Ewing's Sarcoma)) | combination Emax [15] | combination Emax [16] | combination Emax [17]
CCN(CCO)CCCOc1ccc2c(Nc3cc(CC(=O)Nc4cccc(F)c4)[nH]n3)ncnc2c1 [AZD2811] + C[C@@H]1COCCN1C2=NC(=NC(=C2)C3(CC3)[S@](=N)(=O)C)C4=C5C=CNC5=NC=C4 [AZD6738] (first compound max 1 µM, 7x7, partner max 10 µM) | -0.0658 | -0.0302 | -0.0482 | -0.0259 | -0.0713 | -0.0073 | -0.0621 | -0.0145 | -0.0501 | -0.0555 | -0.0407 | 0.968 | 0.865 | 0.711 | 0.59 | 0.73 | 1 | 0.575 | 0.476 | 0.426
CN(CCO)CC[C@H](CSc1ccccc1)Nc1ccc(S(=O)(=O)NC(=O)c2ccc(N3CCC([C@@H](O)c4ccccc4-c4ccc(Cl)cc4)CC3)cc2)cc1S(=O)(=O)C(F)(F)F [AZD4320] + Cc1cc2ncnn2cc1Nc1ncc2c(n1)n(C1CCOCC1)c(=O)n2C [AZD7648] (first compound max 1 µM, 7x7, partner max 10 µM) | 0.0276 | -0.0149 | -0.0455 | -0.0435 | 0.0101 | 0.0357 | -0.0411 | 0.0136 | -0.044 | -0.0418 | 0.0059 | 0.99 | 0.804 | 0.313 | 1 | 0.76 | 0.438 | 0.104 | 0.531 | 0.622
Cc1c2c(nn1C)CSCc1cc(n(C)n1)CSc1cc(c3ccccc3c1)OCCCc1c(C(=O)O)n(C)c3c-2c(Cl)ccc13 [AZD5991] + CCN(CCO)CCCOc1ccc2c(Nc3cc(CC(=O)Nc4cccc(F)c4)[nH]n3)ncnc2c1 [AZD2811] (first compound max 1 µM, 7x7, partner max 1 µM) | 0.0028 | 0.0711 | 0.0267 | 0.0288 | 0.0744 | 0.0939 | -0.0156 | 0.126 | -0.0135 | 0.0159 | 0.0122 | 0.906 | 0.95 | 0.955 | 1 | 0.985 | 0.956 | 0.19 | 0.261 | 0.945
C[C@@H](c1ccc2nccn2c1)n1nnc2ncc(-c3cnn(C)c3)nc21 [Savolitinib] + CC1(C)CCC(CN2CCN(c3ccc(C(=O)NS(=O)(=O)c4ccc(NCC5CCOCC5)c([N+](=O)[O-])c4)c(Oc4cnc5[nH]ccc5c4)c3)CC2)=C(c2ccc(Cl)cc2)C1 [Venetoclax] (first compound max 1 µM, 7x7, partner max 1 µM) | 0.0069 | 0.0216 | -0.0354 | -0.0895 | -0.0157 | -0.0286 | -0.058 | -0.0246 | -0.0442 | -0.0219 | -0.0283 | 0.132 | 0.177 | 0.2 | 0.776 | 0.102 | 0.0824 | 0.168 | 0.123 | 0.259
CC1(C)CCC(CN2CCN(c3ccc(C(=O)NS(=O)(=O)c4ccc(NCC5CCOCC5)c([N+](=O)[O-])c4)c(Oc4cnc5[nH]ccc5c4)c3)CC2)=C(c2ccc(Cl)cc2)C1 [Venetoclax] + C=CCn1c(=O)c2cnc(Nc3ccc(N4CCN(C)CC4)cc3)nc2n1-c1cccc(C(C)(C)O)n1 [AZD1775] (first compound max 1 µM, partner max 1 µM) | 0.001 | 0.0119 | 0.119 | -0.0832 | 0.0627 | 0.0226 | -0.0134 | 0.0028 | -0.0007 | 0.0206 | -0.0108 | 0.949 | 0.888 | 0.917 | 0.976 | 0.516 | 1 | 0.596 | 0.451 | 0.85
COc1cccc(OCCCN)c1-c1cc(Nc2cnc(C#N)cn2)n[nH]1 [Prexasertib] + CCc1c2c(nc3ccc(O)cc13)-c1cc3c(c(=O)n1C2)COC(=O)[C@]3(O)CC [SN-38] (first compound max 1 µM, 7x7, partner max 0.3 µM) | -0.121 | -0.0299 | -0.012 | -0.0177 | -0.124 | 0.0037 | 0.0148 | -0.0094 | -0.0739 | -0.0551 | 0.0191 | 0.982 | 1 | 0.897 | 0.889 | 1 | 1 | 0.713 | 0.818 | 0.703
Cc1cc2ncnn2cc1Nc1ncc2c(n1)n(C1CCOCC1)c(=O)n2C [AZD7648] + O=C(c1cc(Cc2n[nH]c(=O)c3ccccc23)ccc1F)N1CCN(C(=O)C2CC2)CC1 [Olaparib] (first compound max 10 µM, 7x7, partner max 10 µM) | -0.0158 | -0.0564 | -0.0569 | 0.0357 | -0.0538 | -0.0004 | -0.05 | -0.0289 | -0.042 | -0.054 | -0.0128 | 0.351 | 0.846 | 0.41 | 0.394 | 0.152 | 0.23 | 0.205 | 0.162 | 0.335
NC1(C(=O)N[C@@H](CCO)c2ccc(Cl)cc2)CCN(c2ncnc3[nH]ccc23)CC1 [Capivasertib] + Cn1cnc2c(F)c(Nc3ccc(Br)cc3Cl)c(C(=O)NOCCO)cc21 [Selumetinib] (first compound max 10 µM, 7x7, partner max 10 µM) | -0.0359 | -0.0093 | 0.0372 | -0.021 | 0.0759 | -0.0078 | -0.0292 | 0.0547 | -0.0097 | 0.0535 | 0.132 | 0.771 | 0.448 | 0.586 | 0.96 | 0.204 | 0.317 | 0.646 | 0.56 | 0.694
Cc1cc2ncnn2cc1Nc1ncc2c(n1)n(C1CCOCC1)c(=O)n2C [AZD7648] + C[C@@H]1COCCN1C2=NC(=NC(=C2)C3(CC3)[S@](=N)(=O)C)C4=C5C=CNC5=NC=C4 [AZD6738] (first compound max 10 µM, 7x7, partner max 10 µM) | -0.0029 | -0.0509 | 0.074 | -0.0122 | 0.0183 | 0.0194 | 0.008 | 0.0045 | 0.0913 | 0.0049 | 0.0117 | 0.957 | 0.766 | 0.756 | 0.539 | 0.659 | 0.894 | 0.611 | 0.565 | 0.508
CC(=O)c1c(C)c2cnc(Nc3ccc(N4CCNCC4)cn3)nc2n(C2CCCC2)c1=O [Palbociclib] + CC1(C)CCC(CN2CCN(c3ccc(C(=O)NS(=O)(=O)c4ccc(NCC5CCOCC5)c([N+](=O)[O-])c4)c(Oc4cnc5[nH]ccc5c4)c3)CC2)=C(c2ccc(Cl)cc2)C1 [Venetoclax] (first compound max 10 µM, 7x7, partner max 1 µM) | -0.0581 | 0.0187 | 0.0277 | -0.0388 | -0.0424 | 0 | -0.0543 | 0.0188 | -0.0484 | -0.0239 | -0.0121 | 0.287 | 0.644 | 0.599 | 0.842 | 0.404 | 0.277 | 0.0936 | 0.0622 | 0.35
Cc1c2c(nn1C)CSCc1cc(n(C)n1)CSc1cc(c3ccccc3c1)OCCCc1c(C(=O)O)n(C)c3c-2c(Cl)ccc13 [AZD5991] + Cc1cc2ncnn2cc1Nc1ncc2c(n1)n(C1CCOCC1)c(=O)n2C [AZD7648] (first compound max 1 µM, 7x7, partner max 10 µM) | -0.0957 | -0.0087 | -0.028 | -0.0231 | -0.0016 | -0.0059 | 0.0018 | 0.019 | -0.0408 | -0.0398 | -0.0102 | 0.446 | 0.682 | 0.939 | 1 | 0.998 | 0.605 | 0.179 | 0.356 | 0.945
COc1nnc2ccc(N3CCC(c4ccc(OCCN5CCN(C)C(=O)[C@H]5C)cc4)CC3)nn12 [AZD5153] + CCN(CCO)CCCOc1ccc2c(Nc3cc(CC(=O)Nc4cccc(F)c4)[nH]n3)ncnc2c1 [AZD2811] (first compound max 1 µM, 7x7, partner max 1 µM) | -0.0159 | -0.0585 | -0.0372 | -0.0148 | 0.019 | 0.0041 | -0.0563 | 0.0016 | -0.038 | -0.0477 | -0.0349 | 0.986 | 0.884 | 0.741 | 0.75 | 0.364 | 0.995 | 0.436 | 0.434 | 0.279
